Test results from the NIST ThermoML archive (doi:10.1021/je200073x).

How the values were obtained:
[1] = molar heat capacity at constant pressure; details: 101.33 kPa, Liquid, Small sample (50 mg) DSC
[2] = 101.33 kPa, Liquid; for viscosity: Concentric cylinders viscometry; for electrical conductivity: Metler Toledo SevenEasy conductivity meter; for mass density: Vibrating tube method

CCCCCCn1cc[n+](C)c1.F[P-](F)(F)(F)(F)F [1-hexyl-3-methylimidazolium hexafluorophosphate]
Details	electrical conductivity [S/m]	mass density [kg/m3]	molar heat capacity at constant pressure [J/K/mol]	viscosity [mPa·s]
[1], 293.15 K	–	–	421.53	–
[1], 294.15 K	–	–	422.15	–
[1], 295.15 K	–	–	422.78	–
[1], 296.15 K	–	–	423.09	–
[1], 297.15 K	–	–	423.4	–
[1], 298.15 K	–	–	424.02	–
[1], 299.15 K	–	–	424.34	–
[1], 300.15 K	–	–	424.96	–
[1], 301.15 K	–	–	425.27	–
[1], 302.15 K	–	–	426.21	–
[1], 303.15 K	–	–	426.83	–
[1], 304.15 K	–	–	427.15	–
[1], 305.15 K	–	–	427.46	–
[1], 306.15 K	–	–	428.08	–
[1], 307.15 K	–	–	428.71	–
[1], 308.15 K	–	–	429.33	–
[1], 309.15 K	–	–	429.96	–
[1], 310.15 K	–	–	430.58	–
[1], 311.15 K	–	–	431.21	–
[1], 312.15 K	–	–	431.52	–
[1], 313.15 K	–	–	432.14	–
[1], 314.15 K	–	–	432.77	–
[1], 315.15 K	–	–	433.39	–
[1], 316.15 K	–	–	434.02	–
[1], 317.15 K	–	–	434.64	–
[1], 318.15 K	–	–	434.95	–
[1], 319.15 K	–	–	435.58	–
[1], 320.15 K	–	–	436.2	–
[1], 321.15 K	–	–	436.83	–
[1], 322.15 K	–	–	437.45	–
[1], 323.15 K	–	–	437.76	–
[1], 324.15 K	–	–	438.7	–
[1], 325.15 K	–	–	439.32	–
[1], 326.15 K	–	–	439.95	–
[1], 327.15 K	–	–	440.89	–
[1], 328.15 K	–	–	441.82	–
[1], 329.15 K	–	–	442.45	–
[1], 330.15 K	–	–	443.07	–
[1], 331.15 K	–	–	444.01	–
[1], 332.15 K	–	–	444.63	–
[1], 333.15 K	–	–	445.26	–
[1], 334.15 K	–	–	445.88	–
[1], 335.15 K	–	–	446.51	–
[1], 336.15 K	–	–	447.44	–
[1], 337.15 K	–	–	448.07	–
[1], 338.15 K	–	–	448.69	–
[1], 339.15 K	–	–	449.32	–
[1], 340.15 K	–	–	450.25	–
[1], 341.15 K	–	–	450.56	–
[1], 342.15 K	–	–	451.5	–
[1], 343.15 K	–	–	452.44	–
[2], 293.15 K	0.0388	1296.7	–	693.1
[2], 298.15 K	0.0543	1292.9	–	485.8
[2], 303.15 K	0.074	1288.7	–	350.9
[2], 308.15 K	0.0992	1285.1	–	255.4
[2], 313.15 K	0.1301	1281	–	189.4
[2], 318.15 K	0.168	1277	–	147.5
[2], 323.15 K	0.212	1273	–	114.7
[2], 328.15 K	0.264	1269.1	–	91.1
[2], 333.15 K	0.322	1265.2	–	73.5
[2], 338.15 K	0.391	1261.2	–	60
[2], 343.15 K	0.465	1257	–	49.6
